We go through one compound from patent publication US7728128B2, “Dibenzo[c,h][1,5]naphthyridines and their use as DNA probes” (Institut National de la Sante et de la Recherche Medicate …, priority 2006, dated 2010).

Assay type in all cases: cell-based
The test system of one experiment is human fibroblasts. Put plainly: in vivo nuclear fluorescence of human fibroblasts incubated with the molecules, scored in the microscope. On the set-up: key: Weak: Staining was defined as “weak”, “moderate” or “strong” based on the nuclear signal/background ratio.; Moderate: Staining was defined as “weak”, “moderate” or “strong” based on the nuclear signal/background ratio.; Strong: Staining was defined as “weak”, “moderate” or “strong” based on the nuclear signal/background ratio. The settings on record: 10 μM, 10-60 min (up to 24 hours); Alexa488/FITC filter. The procedure: In this study, three different types of cells were used: Xenopus epithelial cell line XL177 (Miller, L. et al., 1977, In Vitro, 13, 557-563) stably transformed with a YFP-α-tubulin expressing construct (pEYFP-Tub, Clontech), mouse fibroblasts, and primary human skin fibroblasts. XL177 cells were grown at 20° C. in 60% Leibowitz-15 medium, supplemented with antibiotics, 10% fetal calf serum (FCS) and 10 mM HEPES, pH 7.2 with addition of 0.7 mg/ml G418. Cells were plated into glass-bottom 96-well plates (Greiner, Germany) and left to spread for 24 hours before being incubated in the presence of the test compounds from the Curie-CNRS small molecule library (at 25 or 50 μM final concentration) for another 20-24 hours. Mouse and human fibroblasts were grown in DMEM with antibiotics and 10% FCS at 37° C. in the presence of 5% CO2. The cells were observed using a Zeiss Axiovert 200M microscope with a 40× oil immersion objective and a standard Alexa488/FITC filter (Omega, XF100-2; Ex475AF40/Em535AF45/Dichroic505). Subsequent experiments were carried out using smaller concentrations of compound I and incubation times as described in the text and figures legends. For the in vivo tests of compound I-like compounds, the molecules were added to cell culture medium at 10 μM final concentration and incubated with cells 10-60 min (up to 24 hours) prior to scoring.
To get a further insight into how the structural properties of compound I contribute to its binding to DNA, the inventors analysed fourteen structural analogues present in the compound library. Although several of these compounds are fluorescent in vivo, this property went undetected in the initial screen most likely due to the latency period before the appearance of the signal (see below). To evaluate the activity of compound I-like molecules three tests were used: (1) in vivo, the inventors incubated human fibroblasts in the presence of the molecules and scored nuclear fluorescence in the microscope; (2 and 3) in vitro, the inventors looked at the absorption and fluorescence of free molecules before and after addition of plasmid DNA. […] With the exception of compound I and analogues 8 and 12, accurate in vitro measurement of the fluorescence intensities was impossible because the emission peaks for the free molecules were too close to that for the DNA-bound dye. This affected the height of the dye/DNA peaks.

For a further experiment, the system named is live mouse fibroblasts. The experiment is described as follows: photoactivation of nuclear fluorescence in live cells (time-lapse video microscopy). Particulars: 5 μM, continuous illumination, Alexa488/FITC filter. How it is done:
Compound I at 5 μM was added directly into the cell medium 10 min before observation in an inverted microscope Zeiss Axiovert 200M with a 100 W mercury lamp. Time lapse images were acquired using CoolSnap HQ (Photometrics, Inc.) black and white camera driven by the Metamorph software (Universal Imaging). All experiments were carried out using 40× or 63× (FIGS. 1C and D) oil immersion Apochromat Zeiss objectives. To measure the fluorescence intensities, an oval region was drawn inside of each nucleus using Metamorph software and integrated intensities (nuclear surface multiplied by the average pixel value) were logged for each image.
To quantify this effect, live mouse fibroblasts were incubated in the presence of 5 μM compound I and time-lapse video microscopy was used to film the cells. Nuclear fluorescence develops slowly in the nuclei of cells treated with compound I and illuminated continuously using a standard Alexa488/FITC filter set (475AF40, 535AF45) (FIG. 5A). Fluorescence peaked after 8 min of illumination and then started to fade (FIG. 5C), most likely reflecting the “bleaching” of compound I. The photoactivation concerned only the cells in the illuminated field, as nuclei of cells immediately outside of the illuminated field remained imperceptible (non-fluorescent). […]

Experiment [1] has as its system Methanol-fixed primary human fibroblasts. Put plainly: nuclear fluorescence in fixed cells under continuous illumination. The procedure: Primary human skin fibroblasts were grown on poly-D-lysine-coated glass coverslips and fixed in cold (−20° C.) anhydrous methanol for 15 min. Samples were re-hydrated in PBS (150 mM NaCl, 20 mM Na-phosphate, pH 7.2), rinsed with 10% PBS (diluted with water) and stained with 120 μM compound I in 10% PBS for 15 min at room temperature in the dark. Samples were mounted, without washing, using the FluorSave™ mounting medium (Calbiochem) or Mowiol and analysed within 3 hours. For image acquisition (FIG. 5B,D) cells were illuminated continuously (open shutter) for 30 min using an Omega filter set XF100-2 (see above). […] Fluorescence of each region at the last time point was taken as 100% and fluorescence intensities at the same region at previous time points (frames) were calculated using Microsoft Excel software.
To quantify this effect, live mouse fibroblasts were incubated in the presence of 5 μM compound I and time-lapse video microscopy was used to film the cells. Nuclear fluorescence develops slowly in the nuclei of cells treated with compound I and illuminated continuously using a standard Alexa488/FITC filter set (475AF40, 535AF45) (FIG. 5A). […] To test this possibility, the inventors stained nuclei of fixed cells with compound I and measured nuclear fluorescence during a continuous 30 min illumination. […]

Experiment [2] relates to primary human fibroblasts. The experiment is described as follows: nuclear fluorescence compared with cyclin A immunofluorescence (DNA quantification). The settings on record: methanol-fixed cells. The text has this: Such a double staining carried the risk of a possible competition for binding sites and/or unpredictable effects on fluorescence. Therefore, the inventors decided to compare the integrated total fluorescence of compound I-stained nuclei in fixed cells with a known cell cycle protein marker. The inventors fixed primary human fibroblasts with methanol, performed indirect immunofluorescence with anti-cyclin A antibodies, followed by Alexa 568-labelled secondary antibodies and counterstained nuclei with compound I. Cyclin A accumulates in cells beginning at the S phase and throughout the G2 cell cycle phase, and unlike cyclin B, is practically all nuclear (rev. in Pines, J. et al., 1992, Ciba Found Symp, 170, 187-196; discussion 196-204.). […] Moreover, the inventors observed a direct correlation of the compound I fluorescence with that of cyclin A in cyclin A-positive cells (FIG. 6B). […] This correlates well with 2N and 4N DNA content expected to be found in G1 and G2 cells, respectively.

For the compound `COc1ccc2c(c1)c(C)nc1c3ccc(OC)cc3c(NCCCN(C)C)nc21` [Compound I, N′-(2,8-dimethoxy-12-methyl-dibenzo[c,h][1,5]naphthyridin-6-yl)-N,N-dimethyl-propane-1,3-diamine], in the experiment on human fibroblasts, the “Images of the in vivo nuclear staining” value was “Strong”. Also, in the experiment with live mouse fibroblasts, the “illumination time to peak/plateau of nuclear fluorescence” value turned out to be 8 min. Besides, the “average pixel values in a representative nucleus” value in experiment [1] (plane (1), start of 30 min illumination) amounted to 512; in experiment [1] (plane (1800), end of 30 min illumination) it was 1434. Besides, the “dye fluorescence of strongly cyclin A-positive nuclei relative to cyclin A-negative nuclei” value in experiment [2] is “approximately twice as much”.
